Data as given in patent publication US20250288704A1, “CXCR4-LIGANDS FOR DIAGNOSTIC AND THERAPEUTIC USE AND PRECURSORS THEREOF” (priority 2021, published 2025).
Non-standard residues stand in square brackets, D forms with d. Residues, ends and D or L forms follow the SMILES beside them. Groups on a side chain read outwards from the residue. *: point of attachment. DOTA = O=C(O)CN1CCN(CC(=O)O)CCN(CC(=O)*)CCN(CC(=O)O)CC1; dTyr(3-I) = N[C@H](Cc1ccc(O)c(I)c1)C(=O)O; 2Nal = N[C@@H](Cc1ccc2ccccc2c1)C(=O)O; dNMeOrn = CN[C@H](CCCN)C(=O)O; 4Amb = NCc1ccc(C(=O)O)cc1; 4Abz = Nc1ccc(C(=O)O)cc1; dDap = NC[C@@H](N)C(=O)O

How the values were obtained:
[1] = tested on: CXCR4-expressing Chem_1 cells; assay: Determination of internalization, dual tracer with 125I-Fc-131; type: cell-based; settings: for Cell-bound [%] / Internalized [%]: of total cellular activity
Method in brief: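 Chem_1 cells grown in DMEM-F12 with 10% FBS at 37 °C; wells (n=3 per time point) received medium or AMD3100 (1 mM stock) to block receptors. Unbound, surface-bound and NaOH-lysed internalized fractions were γ-counted; data corrected for non-specific internalization and referred to standard ligand specific internalization.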

[2] = molecular target: CXCR4 (Homo sapiens, UniProt P61073); assay: Determination of IC50: competition with 125I-Fc-131 on CXCR4-positive Jurkat cells; type: binding; parameters: CXCR4-positive Jurkat T lymphocyte cells were grown in Gibco's RPMI 1640 GlutaMAX medium; endogenous in cells; host or cells: Jurkat T lymphocyte cells (whole cells in suspension, 400.000 per tube); settings: unlabeled or cold (natGa/natLu) compound vs 125I-Fc-131, Jurkat cells; read-out: IC50;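 further: test compound at 10^−5 to 10^−11 M competed for 2 h at 8 °C with the radioligand on 400,000 cells per well, bound versus free activity measured by γ-counting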
Description: For in vitro experiments, cells were counted in a hemocytometer using trypan blue as contrast agent. The cell suspension was centrifuged, and the pellet resuspended in HBSS (+1 wt % BSA) to a concentration of 2 mio cells/mL. […] 200 μL of cell suspension (400.000 cells per well) were added to obtain a final peptide concentration range of 10^−5-10^−11 M. The tubes were cooled for 2 h at 8° C. to prevent internalization. The experiment was stopped by removal of the supernatant. 200 μL HBSS were added onto the cells, the suspension centrifuged, and the supernatant pooled with the respective first fractions. This step was repeated once more before the tubes containing the supernatants and the ones containing the cell pellets were subjected to activity measurement in the γ-counter.

[3] = Biodistribution in Jurkat tumor-bearing CB-17 SCID mice; type: in vivo; parameters: tissue to tissue ratio at 1 h / tissue to tissue ratio / tissue to tissue ratio at 48 h: reference not given here; settings: CB-17 SCID, mouse, in vivo, iv, total radioactivity
Method in brief: (§1)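 CB17-SCID mice bore subcutaneous Jurkat xenografts (2-3×10^7 cells in Matrigel, shoulder), used at 5-8 mm tumor diameter. About 0.5-20 MBq (0.02-0.20 nmol) of 125I-, 177Lu-, 99mTc-, 18F- or 68Ga-labeled ligand given by tail vein; organs weighed and γ-counted after set times.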

[4] = Octanol/PBS partition coefficient (logD7.4); type: physicochemical; settings: n-octanol/PBS pH 7.4, radiolabeled compound
Description: The tubes were vortexed at maximum speed for 3 min to ensure equilibrium before centrifugation at 15.000×g for 5 min on a Biofuge 15 from Heraeus Holding GmbH (Osterode, Germany). An aliquot of 100 μL of each fraction was measured in the γ-counter and the log D7.4 calculated as follows: […]

[5] = tested on: Jurkat tumor-bearing CB-17 SCID mice; assay: Biodistribution in Jurkat tumor-bearing CB-17 SCID mice; type: in vivo; parameters: tissue to tissue ratio at 1 h / tissue to tissue ratio / tissue to tissue ratio at 48 h: reference not given here; settings: mouse, in vivo
Method in brief: as §1

Chain of CXCR4 (P61073 whole entry): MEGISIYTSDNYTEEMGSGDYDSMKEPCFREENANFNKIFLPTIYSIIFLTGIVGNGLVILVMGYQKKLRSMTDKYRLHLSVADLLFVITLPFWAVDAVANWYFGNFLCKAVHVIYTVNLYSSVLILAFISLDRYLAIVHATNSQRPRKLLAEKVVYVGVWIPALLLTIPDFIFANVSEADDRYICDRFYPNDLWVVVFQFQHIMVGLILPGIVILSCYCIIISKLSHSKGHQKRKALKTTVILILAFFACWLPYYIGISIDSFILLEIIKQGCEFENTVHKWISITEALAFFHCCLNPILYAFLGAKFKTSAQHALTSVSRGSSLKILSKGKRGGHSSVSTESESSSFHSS

In the case of `C[C@@H](NC(=O)[C@@H](CCCNC(=N)N)NC(=O)[C@@H](CN)NC(=O)CN1CCN(CC(=O)O)CCN(CC(=O)O)CCN(CC(=O)O)CC1)C(=O)NCc1ccc(C(=O)NCCC[C@@H]2C(=O)N[C@@H](CCCNC(=N)N)C(=O)N[C@@H](Cc3ccc4ccccc4c3)C(=O)NCC(=O)N[C@H](Cc3ccc(O)c(I)c3)C(=O)N2C)cc1` [CXCR4-DOTA-2 [Lu]] (cyclo([dTyr(3-I)][dNMeOrn]([4Amb-dA-dR-dDap-DOTA])R[2Nal]G)), the “Internalized in relation to 125I-Fc-131 [%]” value (from here on “Internalized in relation … [%]”) ([1]; 15 min) is reported as 247 ± 26.2%, the “Cell-bound [%]” value ([1]; 15 min) is reported as 8.31 ± 1.20% and the “Internalized [%]” value ([1]; 15 min) is reported as 11.2 ± 1.93%. For the same compound, the “Internalized in relation … [%]” value ([1]; 30 min) was 347 ± 36.1%, the “Cell-bound [%]” value ([1]; 30 min) was 13.5 ± 1.38% and the “Internalized [%]” value ([1]; 30 min) was 17.8 ± 2.02%. For the same compound, the “Internalized in relation … [%]” value ([1]; 60 min) was 368 ± 36.9%, the “Cell-bound [%]” value ([1]; 60 min) was 16.4 ± 1.31% and the “Internalized [%]” value ([1]; 60 min) was 21.8 ± 1.10%. For the same compound, the “Internalized in relation … [%]” value ([1]; 120 min) was 456 ± 76.3%, the “Internalization [% Fc-131] 2 h” value ([1]; 2 h, 177Lu-labeled) was 456 % Fc-131 and the “Cell-bound [%]” value ([1]; 120 min) was 22.2 ± 2.68%. For the same compound, the “Internalized [%]” value ([1]; 120 min) was 27.3 ± 3.62%, the IC50 [2] was 6.47 ± 1.75 nM and the tissue uptake at 1 h ([3]; female, % iD/g Blood) was 1.67 %ID/g. For the same compound, the tissue uptake at 1 h ([3]; female, % iD/g Bone) was 0.9 %ID/g, the tissue uptake at 1 h ([3]; female, % iD/g Heart) was 1.04 %ID/g and the tissue uptake at 1 h ([3]; female, % iD/g Intestine) was 0.9 %ID/g. For the same compound, the tissue uptake at 1 h ([3]; female, % iD/g Kidney) was 15.7 %ID/g, the tissue uptake at 1 h ([3]; female, % iD/g Liver) was 17.7 %ID/g and the tissue uptake at 1 h ([3]; female, % iD/g Lung) was 2.94 %ID/g. For the same compound, the tissue uptake at 1 h ([3]; female, % iD/g Muscle) was 0.3 %ID/g, the tissue uptake at 1 h ([3]; female, % iD/g Pancreas) was 0.53 %ID/g and the tissue uptake at 1 h ([3]; female, % iD/g Spleen) was 3.62 %ID/g. For the same compound, the tissue uptake at 1 h ([3]; female, % iD/g Stomach) was 1.41 %ID/g, the tissue uptake at 1 h ([3]; female, % iD/g Tumor) was 5.27 %ID/g and the logD7.4 [4] was −2.20 ± 0.06 (8).
In the case of `C[C@@H](NC(=O)[C@@H](CCCNC(=N)N)NC(=O)[C@@H](CN)NC(=O)CN1CCN(CC(=O)O)CCN(CC(=O)O)CCN(CC(=O)O)CC1)C(=O)Nc1ccc(C(=O)NCCC[C@@H]2C(=O)N[C@@H](CCCNC(=N)N)C(=O)N[C@@H](Cc3ccc4ccccc4c3)C(=O)NCC(=O)N[C@H](Cc3ccc(O)cc3)C(=O)N2C)cc1` [CXCR4-DOTA-3 [Lu]] (cyclo([dY][dNMeOrn]([4Abz-dA-dR-dDap-DOTA])R[2Nal]G)), the “Calculated tumor retention 6 h compared to the 1 h-value” [5] is reported as 82%, the “Calculated tumor retention 48 h compared to the 1 h-value” [5] is reported as 65% and the tissue to tissue ratio [3] is reported as 229. The tissue to tissue ratio at 1 h [3] was 9.25, the tissue to tissue ratio at 48 h [3] was 1360 and the tissue uptake at 1 h ([3]; Tumor activity 1 h p.i.) was 8.42 %ID/g. It also gave a tissue uptake at 6 h ([3]; Tumor activity 6 h p.i.) of 6.88 %ID/g, a tissue uptake at 48 h ([3]; Tumor activity 48 h p.i.) of 5.44 %ID/g and a tissue uptake at 1 h ([3]; female, % iD/g Blood) of 0.91 %ID/g. The tissue uptake at 6 h ([3]; female, % iD/g Blood) was 0.03 %ID/g, the tissue uptake at 1 h ([3]; female, % iD/g Bone) was 0.55 %ID/g and the tissue uptake at 6 h ([3]; female, % iD/g Bone) was 0.28 %ID/g. For the same compound, the tissue uptake at 48 h ([3]; female, % iD/g Bone) was 0.18 %ID/g, the tissue uptake at 1 h ([3]; female, % iD/g Heart) was 0.53 %ID/g and the tissue uptake at 6 h ([3]; female, % iD/g Heart) was 0.09 %ID/g. The tissue uptake at 48 h ([3]; female, % iD/g Heart) was 0.06 %ID/g, the tissue uptake at 1 h ([3]; female, % iD/g Intestine) was 0.44 %ID/g and the tissue uptake at 6 h ([3]; female, % iD/g Intestine) was 0.44 %ID/g. The tissue uptake at 48 h ([3]; female, % iD/g Intestine) was 0.11 %ID/g, the tissue uptake at 1 h ([3]; female, % iD/g Kidney) was 14.1 %ID/g and the tissue uptake at 6 h ([3]; female, % iD/g Kidney) was 13.4 %ID/g. It also gave a tissue uptake at 48 h ([3]; female, % iD/g Kidney) of 4.47 %ID/g, a tissue uptake at 1 h ([3]; female, % iD/g Liver) of 8.48 %ID/g and a tissue uptake at 6 h ([3]; female, % iD/g Liver) of 9.43 %ID/g. It also gave a tissue uptake at 48 h ([3]; female, % iD/g Liver) of 8.84 %ID/g, a tissue uptake at 1 h ([3]; female, % iD/g Lung) of 1.67 %ID/g and a tissue uptake at 6 h ([3]; female, % iD/g Lung) of 0.25 %ID/g. The tissue uptake at 48 h ([3]; female, % iD/g Lung) was 0.14 %ID/g, the tissue uptake at 1 h ([3]; female, % iD/g Muscle) was 0.18 %ID/g and the tissue uptake at 6 h ([3]; female, % iD/g Muscle) was 0.03 %ID/g. It also gave a tissue uptake at 48 h ([3]; female, % iD/g Muscle) of 0.01 %ID/g, a tissue uptake at 1 h ([3]; female, % iD/g Pancreas) of 0.28 %ID/g and a tissue uptake at 6 h ([3]; female, % iD/g Pancreas) of 0.09 %ID/g. The tissue uptake at 48 h ([3]; female, % iD/g Pancreas) was 0.05 %ID/g, the tissue uptake at 1 h ([3]; female, % iD/g Spleen) was 1.55 %ID/g and the tissue uptake at 6 h ([3]; female, % iD/g Spleen) was 1.38 %ID/g. The tissue uptake at 48 h ([3]; female, % iD/g Spleen) was 1.32 %ID/g, the tissue uptake at 1 h ([3]; female, % iD/g Stomach) was 0.94 %ID/g and the tissue uptake at 6 h ([3]; female, % iD/g Stomach) was 0.25 %ID/g. The tissue uptake at 48 h ([3]; female, % iD/g Stomach) was 0.07 %ID/g, the tissue uptake at 1 h ([3]; female, % iD/g Tumor) was 8.42 %ID/g and the tissue uptake at 6 h ([3]; female, % iD/g Tumor) was 6.88 %ID/g. For the same compound, the tissue uptake at 48 h ([3]; female, % iD/g Tumor) was 5.44 %ID/g.
